Assay results: patent publication US9556135B2, “Amino-dihydrothiazine and amino-dioxido dihydrothiazine compounds as beta-secretase antagonists and methods of use” (Amgen Inc., priority 2012, dated 2017)

Tested on: Abeta 40
Test: In vivo inhibition of beta-secretase: Abeta 40 reduction in CSF and brain of the rat
Details: 10 mpk (unless otherwise noted), after 4 hrs
Excerpt: In Vivo Inhibition of Beta-Secretase
Several animal models, including mouse, rat, dog, and monkey, may be used to screen for inhibition of beta-secretase activity in vivo following administration of a test compound sample. Animals used in this invention can be wild type, transgenic, or gene knockout animals. […] One to twenty-four hours following the administration of compound, animals are sacrificed, and brains as well as cerebrospinal fluid (CSF) and plasma are removed for analysis of A-beta levels and drug or test compound concentrations (Dovey et al., 2001, Journal of Neurochemistry, 76, 173-181) Beginning at time 0, animals are administered by oral gavage, or other means of delivery such as intravenous injection, an inhibitory test compound of up to 100 mg/kg in a standard, conventional formulation, such as 2% hydroxypropyl methylcellulose, 1% Tween80. A separate group of animals receive 2% hydroxypropyl methylcellulose, 1% Tween80 alone, containing no test compound, and serve as a vehicle-control group. At the end of the test period, animals are sacrificed and brain tissues, plasma or cerebrospinal fluid are collected. Brains are either homogenized in 10 volumes (w/v) of 0.2% diethylamine (DEA) in 50 mM NaCl (Best et al., 2005, Journal of Pharmacology and Experimental Therapeutics, 313, 902-908), or in 10 volumes of 0.5% TritonX-100 in Tris-buffered saline (pH at about 7.6). Homogenates are centrifuged at 355,000 g, 4° C. for 30 minutes. CSF or brain supernatants are then analyzed for the presence of A-beta peptide by specific sandwich ELISA assays based on ECL (Electrochemiluminescence) technology. For example, rat Abeta40 is measured using biotinylated-4G8 (Signet) as a capture antibody and Fab40 (an in-house antibody specific to the C-terminal of Abeta40) as a detection antibody.
Actual vehicles used: Oral: 2% HPMC, 1% Tween80, pH 2.2

SMILES | % reduction of rat CSF levels at 10 pmk [%] | % reduction of rat brain levels at 10 mpk [%]
C[C@]1(c2cc(NC(=O)c3ccc(Cl)cn3)ccc2F)N=C(N)C2(CCC2)S(=O)(=O)[C@@H]1F [Example 131, N-(3-((6S,7R)-9-amino-6-fluoro-7-methyl-5,5-dioxido-5-thia-8-azaspiro[3.5]non-8-en-7-yl)-4-fluorophenyl)-5-chloropicolinamide] | 10 | −18
COc1cnc2c(Nc3ccc(F)c([C@]4(C)CS(=O)(=O)C(C)(C)C(N)=N4)c3)nccc2n1 [Example 47, N-(3-((3R)-5-amino-3,6,6-trimethyl-1,1-dioxido-3,6-dihydro-2H-1,4-thiazin-3-yl)-4-fluorophenyl)-2-methoxypyrido[3,4-b]pyrazin-5-amine] | 82 | 66
Cc1c(C(=O)Nc2ccc(F)c([C@]3(CF)CS(=O)(=O)C(C)(C)C(N)=N3)c2)nc2ccc(Cl)cn12 [Example 158, (S)—N-(3-(5-amino-3-(fluoromethyl)-6,6-dimethyl-1,1-dioxido-3,6-dihydro-2H-1,4-thiazin-3-yl)-4-fluorophenyl)-6-chloro-3-methylimidazo[1,2-a]pyridine-2-carboxamide] | 11 | −5
Cc1cc(OC(F)F)cnc1C(=O)Nc1cc([C@]2(C)CS(=O)(=O)C(C)(C)C(N)=N2)c(=O)n(C)c1 [Example 171, (R)—N-(5-(5-amino-3,6,6-trimethyl-1,1-dioxido-3,6-dihydro-2H-1,4-thiazin-3-yl)-1-methyl-6-oxo-1,6-dihydropyridin-3-yl)-5-(difluoromethoxy)-3-methylpicolinamide] | 1 | 3
CC1(C)C(N)=N[C@](CF)(c2cc(Nc3nccc4cc(C#N)cnc34)ccc2F)CS1(=O)=O [Example 387, 8-((3-((3S)-5-amino-3-(fluoromethyl)-6,6-dimethyl-1,1-dioxido-3,6-dihydro-2H-1,4-thiazin-3-yl)-4-fluorophenyl)amino)-1,7-naphthyridine-3-carbonitrile] | 43 | 27
CC1(C)C(N)=N[C@](C)(c2cc(NC(=O)c3cnc(OCC(F)(F)F)cn3)cnc2F)CS1(=O)=O [Example 402, N-(5-((3R)-5-amino-3,6,6-trimethyl-1,1-dioxido-3,6-dihydro-2H-1,4-thiazin-3-yl)-6-fluoro-3-pyridinyl)-5-(2,2,2-trifluoroethoxy)-2-pyrazinecarboxamide] | 43 | 10
CC1(C)C(N)=N[C@](C)(c2cc(Nc3ncc(F)c4cc(C#N)cnc34)ccc2F)CS1(=O)=O [Example 76, (R)-8-((3-(5-Amino-3,6,6-trimethyl-1,1-dioxido-3,6-dihydro-2H-1,4-thiazin-3-yl)-4-fluorophenyl)amino)-5-fluoro-1,7-naphthyridine-3-carbonitrile] | 60 | 46
Cc1cc(Cl)cnc1C(=O)Nc1ccc(F)c([C@@]2(C)N=C(N)C(C)(C)S(=O)(=O)C2F)c1 (stereo partly drawn) [Example 331, N-(3-((3R)-5-amino-2-fluoro-3,6,6-trimethyl-1,1-dioxido-3,6-dihydro-2H-1,4-thiazin-3-yl)-4-fluorophenyl)-5-chloro-3-methyl-2-pyridinecarboxamide] | 67 | 59
CC1(C)C(N)=N[C@](C)(c2cc(Nc3nccc4cc(C#N)cnc34)ccc2F)CS1(=O)=O [Example 48, 8-((3-((3R)-5-amino-3,6,6-trimethyl-1,1-dioxido-3,6-dihydro-2H-1,4-thiazin-3-yl)-4-fluorophenyl)amino)-1,7-naphthyridine-3-carbonitrile] | 79 | 59
Cc1cc(OC(F)F)cnc1C(=O)Nc1cnc(F)c([C@]2(C)CS(=O)(=O)C(C)(C)C(N)=N2)c1 [Example 400, N-(5-((3R)-5-amino-3,6,6-trimethyl-1,1-dioxido-3,6-dihydro-2H-1,4-thiazin-3-yl)-6-fluoro-3-pyridinyl)-5-(difluoromethoxy)-3-methyl-2-pyridinecarboxamide] | 58 | 25
COc1ccc(C(=O)Nc2ccc(F)c([C@]3(CF)CS(=O)(=O)C(C)(C)C(N)=N3)c2)nc1 [Example 457, N-(3-((3S)-5-amino-3-(fluoromethyl)-6,6-dimethyl-1,1-dioxido-3,6-dihydro-2H-1,4-thiazin-3-yl)-4-fluorophenyl)-5-methoxy-2-pyridinecarboxamide] | 67 | 50
Cc1cc(Cl)cnc1C(=O)Nc1ccc(F)c([C@]2(CF)CS(=O)(=O)C3(CC3)C(N)=N2)c1 [Example 216, (S)—N-(3-(8-amino-6-(fluoromethyl)-4,4-dioxido-4-thia-7-azaspiro[2.5]oct-7-en-6-yl)-4-fluorophenyl)-5-chloro-3-methylpicolinamide] | 57 | 14
Cc1cc(OC(F)F)cnc1C(=O)Nc1ccc(F)c([C@]2(CF)CS(=O)(=O)C(C)(C)C(N)=N2)c1 [Example 148, (S)—N-(3-(5-amino-3-(fluoromethyl)-6,6-dimethyl-1,1-dioxido-3,6-dihydro-2H-1,4-thiazin-3-yl)-4-fluorophenyl)-5-(difluoromethoxy)-3-methylpicolinamide] | 68 | 57
CC1(C)C(N)=N[C@](C)(c2cc(Nc3ncnc4cc(C#N)cnc34)ccc2F)C(F)S1(=O)=O (stereo partly drawn) [Example 229, 4-((3-((3R)-5-amino-2-fluoro-3,6,6-trimethyl-1,1-dioxido-3,6-dihydro-2H-1,4-thiazin-3-yl)-4-fluorophenyl)amino)pyrido[3,2-d]pyrimidine-7-carbonitrile] | 61 | 43
COc1cnc2c(Nc3ccc(F)c([C@]4(CF)CS(=O)(=O)C(C)(C)C(N)=N4)c3)ncc(F)c2c1 [Example 159, (S)-5-amino-3-(2-fluoro-5-((5-fluoro-3-methoxy-1,7-naphthyridin-8-yl)amino)phenyl)-3-(fluoromethyl)-6,6-dimethyl-3,6-dihydro-2H-1,4-thiazine 1,1-dioxide] | 45 | 31
Cc1cc(Cl)cnc1C(=O)Nc1cnc(F)c([C@]2(C)CS(=O)(=O)C3(CCC3)C(N)=N2)c1 [Example 359, N-(5-((7R)-9-amino-7-methyl-5,5-dioxido-5-thia-8-azaspiro[3.5]non-8-en-7-yl)-6-fluoro-3-pyridinyl)-5-chloro-3-methyl-2-pyridinecarboxamide] | 55 | 24
COCc1cc(Cl)cnc1C(=O)Nc1ccc(F)c([C@]2(CF)CS(=O)(=O)C(C)(C)C(N)=N2)c1 [Example 458, N-(3-((3S)-5-amino-3-(fluoromethyl)-6,6-dimethyl-1,1-dioxido-3,6-dihydro-2H-1,4-thiazin-3-yl)-4-fluorophenyl)-5-chloro-3-(methoxymethyl)-2-pyridinecarboxamide] | 35 | 8
CC1(C)C(N)=N[C@](C)(c2cc(NC(=O)c3ccc(F)cn3)ccc2F)CS1(=O)=O [Example 18, N-(3-((3R)-5-amino-3,6,6-trimethyl-1,1-dioxido-3,6-dihydro-2H-1,4-thiazin-3-yl)-4-fluorophenyl)-5-fluoro-2-pyridinecarboxamide] | 73 | 57
CC1(C)C(N)=N[C@](CF)(c2cc(Nc3ncc(F)c4cc(Cl)cnc34)ccc2F)CS1(=O)=O [Example 233, N-(3-((3S)-5-amino-3-(fluoromethyl)-6,6-dimethyl-1,1-dioxido-3,6-dihydro-2H-1,4-thiazin-3-yl)-4-fluorophenyl)-3-chloro-5-fluoro-1,7-naphthyridin-8-amine] | 25 | 0
